One test has as its system MIAPaCa-2 (pancreas). Briefly: In vitro cytotoxic activity (MTT) assay, MIAPaCa-2. Particulars: Homo sapiens, MIA PaCa-2, exposed 96 hours, read-out: IC50, 50% inhibition of cell proliferation. Type of test: cell-based. How it is done:
(§1) Compounds 1-16 were screened for their in vitro cytotoxic activity utilizing a 3-(4,5-dimethyl-thiazol-2-yl)-2,5-diphenyltetrazolium bromide (MTT) assay against selected cancer human cell lines consisting of PC3 (prostate), HCT116 (colon), A375 (melanoma), H1299 (lung), MIAPaCa-2 (pancreas), HL60 (leukemia), MCF7 (breast), MDA-MB-231 (breast) (T. Mosmann, J. Immunol. Meth., 1983, 65, 55-63). The cells were cultured at 37° C. in RMPI1640 medium supplemented with 10% fetal bovine serum, 50 IU/mL penicillin, and 50 μg/mL streptomycin in a 5% CO2 incubator. All cells were sub-cultured 3 times/week by trypsinisation. Viable cells were seeded and allowed to adhere for 12 h before a test drug was added in 96-well plates at an initial density of 1.0×10^5 cells/mL. Tumour cell lines were separately exposed to various concentrations of the tested compounds followed by incubation at a temperature of 37° C. during 96 h inside a medium of fresh RMPI 1640. Cells were subsequently incubated at 37° C. using MTT at 0.5 mg/mL during 4 h. After removal of supernatant, formazan crystals were dissolved in isopropanol and the optical density was measured at 570 nm. CX-4945 was used as a positive control.

Another test has as its system H1299 (lung). Nature of the test: In vitro cytotoxic activity (MTT) assay, H1299. The class given is cell-based. Particulars: Homo sapiens, NCI-H1299, exposed 96 hours, read-out: IC50, 50% inhibition of cell proliferation. The procedure: as §1
A further test concerns HCT116 (colon). Briefly: In vitro cytotoxic activity (MTT) assay, HCT116. Type of test: cell-based. Particulars: Homo sapiens, HCT-116, exposed 96 hours, read-out: IC50, 50% inhibition of cell proliferation. The procedure: as §1
For another test, the system named is A375 (melanoma). Briefly: In vitro cytotoxic activity (MTT) assay, A375. The note with it: Homo sapiens, A-375, exposed 96 hours, read-out: IC50, 50% inhibition of cell proliferation. Type of test: cell-based. How it is done:
as §1

In the next test the test system is PC3 (prostate). Briefly: In vitro cytotoxic activity (MTT) assay, PC3. The class given is cell-based. The note with it: Homo sapiens, exposed 96 hours, read-out: IC50, 50% inhibition of cell proliferation. How it is done:
as §1

Another test has as its system MCF7 (breast). Briefly: In vitro cytotoxic activity (MTT) assay, MCF7. Type of test: cell-based. Particulars: Homo sapiens, exposed 96 hours, read-out: IC50, 50% inhibition of cell proliferation. The procedure: as §1
The next test relates to MDA-MB-231 (breast). Nature of the test: In vitro cytotoxic activity (MTT) assay, MDA-MB-231. Type of test: cell-based. Particulars: Homo sapiens, exposed 96 hours, read-out: IC50, 50% inhibition of cell proliferation. The procedure:
as §1

The target of test [1] is T1, recombinant human CK2 (RRββ-holoenzyme) (Homo sapiens, UniProt P68400).
T1 construct: purchased Millipore
Briefly: CK2 Kinase Assay (33P-ATP, peptide RRRDDDSDDD). Type of test: biochemical. Particulars: final ATP 15 μM, 10 min at 30° C.; read-out: IC50, protein kinase CK2 activity. How it is done: CK2 Kinase Assay was conducted using the protocol as described in Pierre F. et al; J. Med. Chem. 2011, 54, 635-654. The tested compounds in aqueous solution were added at a volume of 10 μL to a reaction mixture comprising 10 μL of assay dilution buffer (ADB; 20 mM MOPS, pH 7.2, 25 mM β-glycerol phosphate, 5 mM EGTA, 1 mM sodium orthovanadate, and 1 mM dithiothreitol), 10 μL of substrate peptide (RRRDDDSDDD, dissolved in ADB at a concentration of 1 mM), 10 μL of recombinant human CK2 (RRββ-holoenzyme, 25 ng dissolved in ADB; Millipore). Reactions were initiated by the addition of 10 μL of ATP solution (90% 75 mMMgCl2, 75 μM ATP (final ATP concentration: 15 μM) dissolved in ADB; 10% [γ-33P] ATP (stock 1 mCi/100 μL; 3000 Ci/mmol (Perkin-Elmer) and maintained for 10 min at 30° C. The reactions were quenched with 100 μL of 0.75% phosphoric acid and then transferred to and filtered through a phosphor cellulose filter plate (Millipore). After washing each well five times with 0.75% phosphoric acid, the plate was dried under vacuum for 5 min and, following the addition of 15 μL of scintillation fluid to each well, the residual radioactivity was measured using a Wallac […] counter. The IC50 values were derived from eight concentrations of test inhibitors.

Another test has as its system HL60 (leukemia). Briefly: In vitro cytotoxic activity (MTT) assay, HL60. Particulars: Homo sapiens, HL-60, exposed 96 hours, read-out: IC50, 50% inhibition of cell proliferation. Type of test: cell-based. The procedure:
as §1

T1 sequence (P68400 whole entry): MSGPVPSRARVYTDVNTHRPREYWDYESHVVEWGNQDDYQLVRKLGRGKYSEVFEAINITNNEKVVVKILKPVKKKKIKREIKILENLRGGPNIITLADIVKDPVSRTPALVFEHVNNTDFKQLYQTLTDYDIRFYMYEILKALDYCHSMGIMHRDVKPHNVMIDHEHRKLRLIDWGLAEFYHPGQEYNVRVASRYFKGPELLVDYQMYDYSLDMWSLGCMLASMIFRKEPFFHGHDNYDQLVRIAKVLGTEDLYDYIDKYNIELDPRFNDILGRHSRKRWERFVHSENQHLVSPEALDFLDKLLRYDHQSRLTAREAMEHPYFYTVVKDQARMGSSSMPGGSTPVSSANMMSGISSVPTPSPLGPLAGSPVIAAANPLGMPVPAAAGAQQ
T1 sequence (P67870 whole entry partner): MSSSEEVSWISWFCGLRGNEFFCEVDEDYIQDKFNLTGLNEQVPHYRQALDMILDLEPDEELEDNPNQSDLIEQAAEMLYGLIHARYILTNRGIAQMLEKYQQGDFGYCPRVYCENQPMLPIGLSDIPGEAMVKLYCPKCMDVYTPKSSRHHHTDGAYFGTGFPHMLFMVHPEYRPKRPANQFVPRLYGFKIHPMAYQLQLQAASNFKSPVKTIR

Take `O=C(O)c1cc2c([nH]1)c(Nc1cccc(Cl)c1)nc1ccncc12` [Compound 1, 6-((3-chlorophenyl)amino)-7H-pyrrolo[2,3-c][1,6]naphthyridine-8-carboxylic acid]: the IC50 in the test on MIAPaCa-2 (pancreas) was 1300 nM; with H1299 (lung), 1100 nM; in the test on HCT116 (colon), 1600 nM; with A375 (melanoma), 2500 nM; in the test with PC3 (prostate) it was 1800 nM; in the test with MCF7 (breast), 3900 nM. Moreover, the IC50 in the test with MDA-MB-231 (breast) was determined as 3200 nM; in test [1], 21 nM; in the test with HL60 (leukemia) it was 2800 nM.
